Measurements as given in US20060165672A1, “Fatigue reducing agent” (KANEKA CORPORATION, priority 2003, published 2006).

What was measured:
[1] = Level of reduced coenzyme Q in the muscle after oral administration (HPLC, electrochemical detector); assay type: in vivo, male SD rats; settings: for Intramuscular level of reduced coenzyme Q (in words): after administration
Description: (§1) Reduced coenzyme Q10 obtained in the Reference Example 1 (containing about 1% of oxidized coenzyme Q10) was dissolved in soybean oil solution (reduced coenzyme Q10/soybean oil solution=20 mg/ml) and orally administered to male SD rats (6 weeks of age) at a dose of 100 mg/kg of reduced coenzyme Q10 (containing about 1% of oxidized coenzyme Q10), once a day for 5 days. Five days later, the muscles of the femoral region were collected, and coenzyme Q level in the muscle was measured. The measurement of the coenzyme Q level in the muscle was performed using HPLC. The harvested rat muscle (0.2 g) was homogenized after the addition of coenzyme Q7 (0.003 mg), ethanol (1 ml), distilled water (1 ml) and ferric chloride (0.01%), and then hexane (3 ml) was added. Coenzyme Q10 was extracted from the homogenate after shaking. After repeating this extraction operation twice, the extract was brought to dryness by evaporating hexane out, re-dissolved in 0.25 ml ethanol and injected to HPLC. HPLC condition is as follows; column: YMC-Pack (ODS-A303), detection wavelength: 275 nm, mobile phase: methanol (88%), hexane (12%), flow rate: 1 ml/min. The measurement of the ratio of reduced coenzyme Q10 and oxidized coenzyme Q10 in the muscle was carried out as follows. The harvested rat muscle (0.2 g) was homogenized after the addition of distilled water (0.2 ml) and ethanol (0.8 ml), and the homogenate was extracted by adding hexane (1.2 ml). After evaporating hexane under a stream of nitrogen, the extract was re-dissolved in ethanol (0.2 ml) and injected to HPLC. The condition of the HPLC operation was the same as the above except that the electrochemical detector was used. Soybean oil was administered to the control group.
The level of reduced coenzyme Q in the muscle was measured after administration of reduced coenzyme Q10 in a manner similar to (Example 1).
The level of reduced coenzyme Q in the muscle was measured after administration of oxidized coenzyme Q10 in a manner similar to (Comparative Example 1).

[2] = Coenzyme Q level in the muscle after oral administration for 5 days (HPLC); assay type: in vivo, male SD rats
Description: as §1
Similarly oxidized coenzyme Q10 was administered and then the coenzyme Q level in the muscle was measured.

[3] = test system: male SD rats (7 weeks of age); test: Tread mill test in young rats (maximum running time); assay type: in vivo, rat; settings: for Maximum Running Time, Time prolonged: after minus before administration; for Maximum Running Time, After administration, relative to solvent control (100) / Maximum Running Time, Time prolonged, relative to solvent control (100) / Maximum Running Time, Before administration, relative to solvent control (100): value in parentheses; for Maximum Running Time, After administration: 2 hours after 300 mg/kg oral dose; for Maximum Running Time, Before administration: baseline before 300 mg/kg oral dose
Description: (§2) The anti-fatigue effect of reduced coenzyme Q10 (note that it contained about 1% of oxidized coenzyme Q10) was evaluated in male SD rats (7 weeks of age, n=10) using a tread mill. A rat was forced to run at a speed of 10 m/min on the tread mill machine (Type NK-73-4, Natsume Seisakusho Co., Ltd.). Then the speed was increased stepwise by 5 m/min in every 3 min, and the time when the rat could no longer run was measured (the maximum running time). The soybean oil solution of reduced coenzyme Q10 according to the Reference Example 1 (reduced coenzyme Q10/soybean oil solution=20 mg/ml) was prepared as a test substance and orally administered to rats as reduced coenzyme Q10 (note that it contained about 1% of oxidized coenzyme Q10) with a dose of 300 mg/kg. The maximum running times were measured before administration and 2 hours after administration and a prolongation of the maximum running time was calculated. Soybean oil was administered to the control group.
The anti-fatigue effect of oxidized coenzyme Q10 was evaluated in young rats in a manner similar to (Example 3).

[4] = compared with oxidized coenzyme Q10, Japanese Patent Laid-Open No. 10-109933; cited from earlier work
[5] = test system: male SD rats (61 to 63 weeks of age); test: Tread mill test in aged rats (maximum running time, crossover); assay type: in vivo, rat; settings: for Maximum running time of aged rats (in words) / Maximum Running Time, Time prolonged / Maximum Running Time, After administration, relative to solvent control (100): 300 mg/kg oral; for Maximum Running Time, Time prolonged: after minus before administration; for Maximum Running Time, After administration, relative to solvent control (100) / Maximum Running Time, Before administration, relative to solvent control (100): value in parentheses; for Maximum Running Time, After administration: after 300 mg/kg oral dose; for Maximum Running Time, After administration / Maximum Running Time, Before administration: crossover; for Maximum Running Time, Before administration: baseline before 300 mg/kg oral dose
Description: as §2
The anti-fatigue effect of reduced coenzyme Q10 (containing about 1% of oxidized coenzyme Q10) was evaluated in male SD rats (61 to 63 weeks of age, n=7) in a manner similar to (Example 3). This experiment was performed using a crossover method. […]

[6] = femoral muscle, 100 mg/kg orally once a day for 5 days
[7] = value in parentheses, control group = 100
[8] = femoral muscle, 100 mg/kg orally once a day for 5 days, rats 6 weeks of age
[9] = value in parentheses, control group = 100, 100 mg/kg orally, 5 days

SMILES | Intramuscular level of reduced coenzyme Q (in words) [1] | Level of Reduced Coenzyme Q in Muscle, Q9 [1, 6] | Level of Reduced Coenzyme Q in Muscle, Total CoQ [1, 6] | Level of Reduced Coenzyme Q in Muscle, Q9, relative to control group (100) [1, 7] | Level of Reduced Coenzyme Q in Muscle, Total CoQ, relative to control group (100) [1, 7] | Level of Coenzyme Q in Muscle, Q9 [2, 8] | Level of Coenzyme Q in Muscle, Total CoQ [2, 8] | Level of Coenzyme Q in Muscle, Q9, relative to control group (100) [2, 9] | Level of Coenzyme Q in Muscle, Total CoQ, relative to control group (100) [2, 9] | Maximum Running Time, Time prolonged ([3]; 300 mg/kg oral) | Maximum Running Time, After administration, relative to solvent control (100) ([3]; 300 mg/kg oral) | Maximum Running Time, Time prolonged, relative to solvent control (100) ([3]; 300 mg/kg oral) | Maximum Running Time, After administration [3] | Maximum Running Time, Before administration [3] | Maximum Running Time, Before administration, relative to solvent control (100) [3] | Maximum running time of aged rats (in words) [5] | Maximum Running Time, Time prolonged [5] | Maximum Running Time, After administration, relative to solvent control (100) [5] | Maximum Running Time, After administration [5] | Maximum Running Time, Before administration [5] | further results
COc1c(O)c(C)c(C/C=C(\C)CC/C=C(\C)CC/C=C(\C)CC/C=C(\C)CC/C=C(\C)CC/C=C(\C)CC/C=C(\C)CC/C=C(\C)CC/C=C(\C)CCC=C(C)C)c(O)c1OC [Reduced Coenzyme Q10, reduced coenzyme Q10] | increased | 5.32 ± 1.07 µg/g | 5.71 ± 1.16 µg/g | (162*) | (159*) | 15.82 ± 2.89 µg/g | 17.39 ± 3.09 µg/g | (164*) | (168*) | 196 ± 127 s | (108*) | (349**) | 1719 ± 160 s | 1523 ± 97 s | (99) | significantly prolonged | 97 ± 28 s | (115) | 958 ± 52 s | 861 ± 123 s | Level of Reduced Coenzyme Q in Muscle, Q10 [1, 6]: 0.39 ± 0.24 µg/g; Level of Reduced Coenzyme Q in Muscle, Q10, relative to control group (100) [1, 7]: (122); Endogenous coenzyme Q (in words) ([2]; after administration, endogenous = synthesized in vivo): increase of endogenous coenzyme Q; Level of Coenzyme Q in Muscle, Q10 [2, 8]: 1.57 ± 0.21 µg/g; Level of Coenzyme Q in Muscle, Q10, relative to control group (100) [2, 9]: (215**); Maximum running time of rats (in words) ([3]; 300 mg/kg oral): significantly prolonged; Plasma level of coenzyme Q after oral administration (in words) [4]: raised the plasma level of coenzyme Q more than oral administration of oxidized coenzyme Q10; Maximum Running Time, Before administration, relative to solvent control (100) [5]: (100)
COC1=C(OC)C(=O)C(C/C=C(\C)CC/C=C(\C)CC/C=C(\C)CC/C=C(\C)CC/C=C(\C)CC/C=C(\C)CC/C=C(\C)CC/C=C(\C)CC/C=C(\C)CCC=C(C)C)=C(C)C1=O [Oxidized Coenzyme Q10, oxidized coenzyme Q10, reference compound] | decreased | 2.34 ± 0.42 µg/g | 2.45 ± 0.44 µg/g | (71*) | (68*) | 12.84 ± 2.03 µg/g | 14.18 ± 2.18 µg/g | (133) | (137) | 190 ± 76 s | (108**) | (339**) | 1733 ± 107 s | 1543 ± 99 s | (100) | no prolongation effect | 14 ± 43 s | (105) | 875 ± 108 s | 861 ± 123 s | Level of Reduced Coenzyme Q in Muscle, Q10, relative to control group (100) ([1]; rat, in vivo): (34**); Anti-fatigue effect in young rats (in words, compared with reduced coenzyme Q10) ([3]; 300 mg/kg oral): about the same as that of reduced coenzyme Q10; Maximum Running Time, Before administration, relative to solvent control (100) [5]: (100)
